Test results published in ChEMBL document CHEMBL6127068, “Discovery of novel nitrofuran PROTAC-like compounds as dual inhibitors and degraders targeting STING” (Eur J Med Chem, 2024).
Calls of active or inactive are those of the source. The calls are words filed in the database; no cut-off is given here.

Assays:
[1] = biological target: T1, Protein cereblon/Stimulator of interferon genes protein (Homo sapiens, UniProt Q96SW2+Q86WV6); assay: PROTAC activity at CRBN/STING in human THP-1 cells assessed as induction of STING degradation at 10 uM incubated for 24 hrs by western blot analysis; format: cell-based
T1 sequence (Q86WV6 whole entry, looked up): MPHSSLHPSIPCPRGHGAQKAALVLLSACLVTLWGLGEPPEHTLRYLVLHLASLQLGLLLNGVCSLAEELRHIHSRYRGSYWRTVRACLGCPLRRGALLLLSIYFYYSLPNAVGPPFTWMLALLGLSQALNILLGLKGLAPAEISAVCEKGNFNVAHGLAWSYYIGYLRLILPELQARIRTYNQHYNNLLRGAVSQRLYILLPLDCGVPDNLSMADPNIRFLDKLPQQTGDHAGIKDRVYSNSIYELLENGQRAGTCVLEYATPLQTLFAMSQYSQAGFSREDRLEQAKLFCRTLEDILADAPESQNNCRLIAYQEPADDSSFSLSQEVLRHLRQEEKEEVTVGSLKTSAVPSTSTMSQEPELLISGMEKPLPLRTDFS
T1 sequence (Q96SW2 whole entry, looked up): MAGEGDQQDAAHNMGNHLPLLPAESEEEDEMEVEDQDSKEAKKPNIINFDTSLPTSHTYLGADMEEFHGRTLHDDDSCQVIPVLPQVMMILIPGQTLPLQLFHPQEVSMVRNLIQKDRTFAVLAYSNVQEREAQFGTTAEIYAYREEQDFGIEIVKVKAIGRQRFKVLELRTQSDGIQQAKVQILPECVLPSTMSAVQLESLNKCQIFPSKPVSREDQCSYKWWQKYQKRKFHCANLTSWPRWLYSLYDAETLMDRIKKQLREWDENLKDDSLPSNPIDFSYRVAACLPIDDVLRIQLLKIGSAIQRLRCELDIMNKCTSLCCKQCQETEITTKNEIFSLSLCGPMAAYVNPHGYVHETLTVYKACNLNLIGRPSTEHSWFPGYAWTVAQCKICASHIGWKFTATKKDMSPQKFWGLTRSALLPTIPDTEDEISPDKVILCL

[2] = biological target: T2, von Hippel-Lindau disease tumor suppressor/Stimulator of interferon genes protein (Homo sapiens, UniProt P40337+Q86WV6); assay: PROTAC activity at VHL/STING (unknown origin) assessed as induction of protein degradation; format: protein assay
Target sequence in this assay (P40337 whole entry): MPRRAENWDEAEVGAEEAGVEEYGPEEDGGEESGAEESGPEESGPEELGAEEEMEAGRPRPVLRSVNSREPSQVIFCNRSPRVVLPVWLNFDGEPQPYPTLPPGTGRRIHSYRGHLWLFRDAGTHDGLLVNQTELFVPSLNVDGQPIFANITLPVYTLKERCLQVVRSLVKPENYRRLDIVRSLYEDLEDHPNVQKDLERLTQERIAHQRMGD
Target sequence in this assay (Q86WV6 whole entry): as the sequence (Q86WV6 whole entry, looked up) above

[3] = biological target: T2, von Hippel-Lindau disease tumor suppressor/Stimulator of interferon genes protein; assay: PROTAC activity at VHL/STING (unknown origin) assessed as induction of protein degradation relative to control; format: protein assay
Target sequence in this assay (P40337 whole entry, looked up): as the sequence (P40337 whole entry) above
Target sequence in this assay (Q86WV6 whole entry, looked up): as the sequence (Q86WV6 whole entry, looked up) above

[4] = biological target: T1, Protein cereblon/Stimulator of interferon genes protein; assay: PROTAC activity at CRBN/STING in human THP-1 cells assessed as induction of STING degradation at 10 uM pretreated with proteasome inhibitor, MG132 for 1 hr followed by incubation with compound for 24 hrs by western blot analysis; format: cell-based
[5] = Cytotoxicity against HUVEC assessed as reduction in cell viability at 3.3 uM incubated for 48 hrs by MTT assay; format: toxicity, cell-based; conditions: human, HUVEC cells, read-out: INH
[6] = Cytotoxicity against HEK293T cells assessed as reduction in cell viability at 3.3 uM incubated for 48 hrs by MTT assay; format: toxicity, cell-based, HEK-293T; conditions: human, read-out: INH

Structure (SMILES) | Activity [1] | also measured
O=C1CCC(N2C(=O)c3cccc(OCc4cn(CC(=O)OCc5ccc(NC(=O)c6ccc([N+](=O)[O-])o6)cc5)nn4)c3C2=O)C(=O)N1 (stereo not drawn) | Active | 
O=C1CCC(N2C(=O)c3cccc(OCc4cn(CCCCCC(=O)Oc5ccc(NC(=O)c6ccc([N+](=O)[O-])o6)cc5)nn4)c3C2=O)C(=O)N1 (stereo not drawn) | inactive | 
Cc1ncsc1-c1ccc([C@H](C)NC(=O)[C@@H]2C[C@@H](O)CN2C(=O)[C@@H](NC(=O)CCC(=O)NCCCNC(=O)c2cccc(S(=O)(=O)n3cc(C(=O)NCCCCCC(=O)Oc4ccc(NC(=O)c5ccc(-c6ccccc6)cc5)cc4NS(=O)(=O)c4ccc(F)cc4)ccc3=O)c2)C(C)(C)C)cc1 |  | DC50 [2]: 530 nM; Activity [3]: 56.6%
O=C1CCC(N2C(=O)c3cccc(OC(=O)CCCc4cn(CCCCCC(=O)Oc5ccc(NC(=O)c6ccc([N+](=O)[O-])o6)cc5)nn4)c3C2=O)C(=O)N1 (stereo not drawn) | 71% | 
O=C1CCC(N2C(=O)c3cccc(OCc4cn(CCCC(=O)Oc5ccc(NC(=O)c6ccc([N+](=O)[O-])o6)cc5)nn4)c3C2=O)C(=O)N1 (stereo not drawn) | Active | 
O=C1CCC(N2C(=O)c3ccc(OCc4cn(CC(=O)OCCc5ccc(NC(=O)c6ccc([N+](=O)[O-])o6)cc5)nn4)cc3C2=O)C(=O)N1 (stereo not drawn) | Active | 
CN1C(=O)CCC(N2C(=O)c3cccc(OCc4cn(CCCCCC(=O)OCCc5ccc(NC(=O)c6ccc([N+](=O)[O-])o6)cc5)nn4)c3C2=O)C1=O (stereo not drawn) |  | Activity [4]: Active
O=C1CCC(N2C(=O)c3cccc(OCc4cn(CCCC(=O)OCc5ccc(NC(=O)c6ccc([N+](=O)[O-])o6)cc5)nn4)c3C2=O)C(=O)N1 (stereo not drawn) | Active | 
CCCCc1ccc(NC(=O)c2ccc([N+](=O)[O-])o2)cc1 |  | cytotoxicity at 48 h, 3.3 µM [5]: 68.2%; cytotoxicity at 48 h, 3.3 µM [6]: 80.1%
O=C1CCC(N2C(=O)c3cccc(OCc4cn(CCCCCC(=O)OCc5ccc(NC(=O)c6ccc([N+](=O)[O-])o6)cc5)nn4)c3C2=O)C(=O)N1 (stereo not drawn) | Active | 
O=C1CCC(N2C(=O)c3ccc(OCc4cn(CCCC(=O)OCCc5ccc(NC(=O)c6ccc([N+](=O)[O-])o6)cc5)nn4)cc3C2=O)C(=O)N1 (stereo not drawn) | 76% | 
